Test results reported in article PMC6151990, “Effects of P-Glycoprotein on the Transport of DL0410, a Potential Multifunctional Anti-Alzheimer Agent” (Molecules : A Journal of Synthetic Chemistry and Natural …, 2017).
Where a name gives a salt, the structure may show the parent alone.

What was measured:
[1] = Transcellular transport across Caco-2 cell monolayer; type: in vitro ADME; conditions: human
Description: (§2) Caco-2, MDCK and MDCK-MDR1cells were cultured at seeding densities of 1 × 10^5, 2 × 10^5, 2 × 10^5 cells/cm^2, respectively, onto polycarbonate membrane transwell inserts in 12-well plates. Prior to performing the transport studies, we determined the values of Trans Epithelial Electric Resistance (TEER) and Papp values of fluorescein to ensure the integrity of the monolayers [16]. After seeding for 18 and 21 days, the cultural medium of transwell chambers was removed carefully and washed twice with HBSS (pH 7.4, 37 °C), and then pre-incubated for 30 min at 37 °C. The transwell chambers were incubated for 20 min at 37 °C. […] After incubation for 2 h, the liquor of each side was collected for determination.
(§3) To analyze DL0410 in HBSS buffer, 15 µL of IS working solution (phenacetin, 1 µg/mL) and 150 µL sample were mixed with 1000 µL ethyl acetate to extract the analytes, and then vortexed for 5 min. After centrifuging at 13,000 rpm for 10 min, the supernatant was added into another tube carefully and evaporated to dryness under a gentle flow of nitrogen gas. The residue was reconstituted in 60 µL acetonitrile–water (20:80, v/v, containing 0.5% formic acid). After centrifugation, the supernatant was used for analysis. The analytical column was Agilent Zorbax SD-C18 (100 mm × 2.1 mm, 3.5 µm; Agilent Technologies, Santa Clara, CA, USA). The mobile phase was made up of acetonitrile–water (0.5% formic acid) (20:80, v/v). Injection volume, flow rate, and column temperature were 20 µL, a 0.3 mL/min, and 35 °C, respectively. The mass spectrometer was operated in the positive scan mode. The conditions of ESI source were as follows: drying gas flow was set at 10 L/min, nebulizer pressure was 35.0 psig, capillary voltage was 3000 V, and drying gas temperature was 350 °C. The ESI was performed using nitrogen to assist nebulization.
(§4) The Papp values (cm/s) were computed according to the following equation [16], Papp=V/C0×1/S×dC/dt (V: volume of medium in the receiver chamber (mL); C0: initial concentration in the donor chamber (µM/mL), S: the surface area of monolayer (cm^2); dC/dt: variance rate in the receptor chamber of concentration with time (µM/mL/s)) The ER was calculated by the Papp value from BL to AP divided by Papp value from AP to BL. In MDCK-MDR1 and MDCK cell models, the NER was measured by comparing the ER values as follows [16]. (1) ER=Papp(B−A)/Papp(A−B) (2) NER=ERMDCK−MDR1/ERMDCK

[2] = tested on: Caco-2 cell monolayer; experiment: as above; type: in vitro ADME; conditions: human, Caco-2
Description: as §2, §3, §4

[3] = Transcellular transport across MDCK cell monolayer; type: in vitro ADME, Canine; conditions: dog
Description: as §2, §3, §4

[4] = Transcellular transport across MDCK-MDR1 cell monolayer; type: in vitro ADME, Canine; conditions: dog; MDCK-MDR1 monolayer, integrity control; read-out: permeability value
Description: as §2, §3, §4

[5] = target: human P-gp membranes (Homo sapiens, UniProt P08183); experiment: P-gp ATPase activity (Pgp-Glo assay); conditions: P-gp ATPase stimulation
[6] = tested on: Caco-2 cells; experiment: CCK-8 cytotoxicity assay, Caco-2; type: cell-based, human; conditions: Caco-2, 100 µM, 12 h
Description: (§1) The cytotoxicity of DL0410 was determined by the CCK-8 assay. Caco-2 Cells, at a density of 1 × 10^5 cells/mL, were seeded in 96-well plates for culture. The seeding density of MDCK and MDCK-MDR1cells were 0.8 × 10^5 cells/mL. Two days after seeding, increasing concentrations (0.1, 1, 10, 100 µM) of DL0410 were added for treatment, and cytotoxicity was measured after 12 h by the CCK-8 assay.

[7] = tested on: P-gp (MDR1); experiment: Transcellular transport across MDCK-MDR1 cell monolayer; type: in vitro ADME, Canine; conditions: dog, pH 7.4; MDCK-MDR1, DL0410 10 μM; read-out: ER
Description: as §2, §3, §4

[8] = tested on: P-gp; experiment: as above; type: in vitro ADME, Canine; conditions: dog, pH 7.4
Description: as §2, §3, §4

[9] = tested on: MDCK-MDR1 cell monolayer; experiment: as above; type: in vitro ADME, Canine; conditions: ER MDCK-MDR1 / ER MDCK
Description: as §2, §3, §4

[10] = tested on: MDCK-MDR1 cells; experiment: CCK-8 cytotoxicity assay, MDCK-MDR1; type: cell-based, Canine; conditions: MDCK-MDR1, 100 µM, 12 h
Description: as §1

[11] = target: T1, P-gp (Homo sapiens, UniProt P08183); experiment: Effect on Rho123 transport (BL to AP) in MDCK-MDR1 cells; type: cell-based; conditions: MDCK-MDR1, Rho123 10 µM, DL0410 50 µM, 2 h
T1 construct: expressed in transfected cells; host or cells: MDCK-MDR1 (canine kidney MDCK cells transfected with the human MDR1 gene)

[12] = tested on: MDCK cells; experiment: CCK-8 cytotoxicity assay, MDCK; type: cell-based, Canine; conditions: 100 µM, 12 h
Description: as §1

Chain of human P-gp membranes (P08183 whole entry): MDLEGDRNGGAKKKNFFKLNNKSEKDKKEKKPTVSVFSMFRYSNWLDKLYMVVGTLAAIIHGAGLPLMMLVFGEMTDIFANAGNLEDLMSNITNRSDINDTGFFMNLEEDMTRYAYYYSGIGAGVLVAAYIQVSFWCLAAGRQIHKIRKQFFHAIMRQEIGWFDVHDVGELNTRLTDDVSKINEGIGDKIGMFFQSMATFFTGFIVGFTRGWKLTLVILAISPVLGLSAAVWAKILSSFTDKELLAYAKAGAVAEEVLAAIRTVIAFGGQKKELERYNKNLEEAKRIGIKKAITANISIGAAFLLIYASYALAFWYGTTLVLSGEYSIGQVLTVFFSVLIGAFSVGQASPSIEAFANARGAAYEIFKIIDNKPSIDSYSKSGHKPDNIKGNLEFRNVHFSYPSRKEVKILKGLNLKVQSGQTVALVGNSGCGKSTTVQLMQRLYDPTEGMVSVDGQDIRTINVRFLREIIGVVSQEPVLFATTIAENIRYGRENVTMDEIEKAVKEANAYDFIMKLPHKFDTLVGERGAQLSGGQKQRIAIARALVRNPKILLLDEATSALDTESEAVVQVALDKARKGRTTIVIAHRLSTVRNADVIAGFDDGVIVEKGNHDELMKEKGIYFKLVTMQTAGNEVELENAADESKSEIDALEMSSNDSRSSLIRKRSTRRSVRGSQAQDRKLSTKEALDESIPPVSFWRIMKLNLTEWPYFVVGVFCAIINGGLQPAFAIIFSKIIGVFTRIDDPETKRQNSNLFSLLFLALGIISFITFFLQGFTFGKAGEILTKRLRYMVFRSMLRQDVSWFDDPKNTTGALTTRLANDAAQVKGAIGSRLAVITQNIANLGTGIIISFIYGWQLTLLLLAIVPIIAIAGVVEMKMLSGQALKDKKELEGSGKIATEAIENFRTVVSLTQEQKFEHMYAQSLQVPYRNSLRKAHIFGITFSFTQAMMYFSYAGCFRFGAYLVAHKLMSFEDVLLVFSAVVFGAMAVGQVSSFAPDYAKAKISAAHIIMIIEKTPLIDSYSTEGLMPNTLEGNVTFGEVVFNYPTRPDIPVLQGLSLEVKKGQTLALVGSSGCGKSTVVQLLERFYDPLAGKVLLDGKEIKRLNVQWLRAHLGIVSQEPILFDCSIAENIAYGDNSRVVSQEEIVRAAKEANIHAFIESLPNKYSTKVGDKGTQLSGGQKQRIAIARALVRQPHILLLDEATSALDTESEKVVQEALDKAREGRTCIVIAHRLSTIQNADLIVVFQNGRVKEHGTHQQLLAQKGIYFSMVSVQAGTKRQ
T1 sequence (P08183 whole entry): as above

In the case of O=C1OC2(c3ccc(O)cc3Oc3cc(O)ccc32)c2ccccc21 [fluorescein, reference compound], the Papp ([1]; Caco-2 monolayer, integrity control, read-out: apparent permeability (Papp)) is reported as 1.09 ×10⁻⁶ cm/s, the penetration rate [2] is reported as 0.10% and the Papp ([3]; MDCK monolayer, integrity control, read-out: permeability value) is reported as 0.702 ×10⁻⁶ cm/s. It also gave a Papp [4] of 0.571 ×10⁻⁶ cm/s.
For COc1ccc(CCN(C)CCCC(C#N)(c2ccc(OC)c(OC)c2)C(C)C)cc1OC (stereo not shown) [Verapamil, reference compound], the “concentration at which the activity of ATPase was saturated” value [5] was 100 µM.
Compound O=C(CCN1CCCCC1)c1ccc(-c2ccc(C(=O)CCN3CCCCC3)cc2)cc1 [DL0410, 1,1’-([1,1’-Biphenyl]-4,4’-diyl)bis(3-(piperidin-1-yl)propan-1-one)dihydrochloride] has a Papp A→B at 2 h, 10 µM ([1]; pH 7.4, Caco-2, DL0410 10 μM) of 0.725 ± 0.184 ×10⁻⁶ cm/s, a Papp B→A at 2 h, 10 µM ([1]; pH 7.4, Caco-2, DL0410 10 μM) of 3.27 ± 0.251 ×10⁻⁶ cm/s and an efflux ratio at 2 h, 10 µM ([1]; pH 7.4, Caco-2, DL0410 10 μM, read-out: ER) of 4.52. The Papp A→B at 2 h, 30 µM ([1]; pH 7.4, Caco-2, DL0410 30 μM) was 0.841 ± 0.098 ×10⁻⁶ cm/s, the Papp B→A at 2 h, 30 µM ([1]; pH 7.4, Caco-2, DL0410 30 μM) was 3.45 ± 0.619 ×10⁻⁶ cm/s and the efflux ratio at 2 h, 30 µM ([1]; pH 7.4, Caco-2, DL0410 30 μM, read-out: ER) was 4.1. It also gave a Papp A→B at 2 h, 100 µM ([1]; pH 7.4, Caco-2, DL0410 100 μM) of 1.28 ± 0.017 ×10⁻⁶ cm/s, a Papp B→A at 2 h, 100 µM ([1]; pH 7.4, Caco-2, DL0410 100 μM) of 2.38 ± 0.138 ×10⁻⁶ cm/s and an efflux ratio at 2 h, 100 µM ([1]; pH 7.4, Caco-2, DL0410 100 μM, read-out: ER) of 1.86. The Papp at 2 h ([1]; pH 7.4, Caco-2, summary value in text (A→B), read-out: apparent permeability (Papp)) was roughly 1 ×10⁻⁶ cm/s, the efflux ratio at 2 h ([3]; pH 7.4, MDCK cells, summary value in text, read-out: ER) was roughly 1 and the Papp A→B at 2 h, 10 µM ([3]; pH 7.4, MDCK, DL0410 10 μM) was 0.502 ± 0.103 ×10⁻⁶ cm/s. It also gave a Papp B→A at 2 h, 10 µM ([3]; pH 7.4, MDCK, DL0410 10 μM) of 0.708 ± 0.114 ×10⁻⁶ cm/s, an efflux ratio at 2 h, 10 µM ([3]; pH 7.4, MDCK, DL0410 10 μM, read-out: ER) of 1.41 and a Papp A→B at 2 h, 30 µM ([3]; pH 7.4, MDCK, DL0410 30 μM) of 0.74 ± 0.023 ×10⁻⁶ cm/s. It also gave a Papp B→A at 2 h, 30 µM ([3]; pH 7.4, MDCK, DL0410 30 μM) of 0.871 ± 0.068 ×10⁻⁶ cm/s, an efflux ratio at 2 h, 30 µM ([3]; pH 7.4, MDCK, DL0410 30 μM, read-out: ER) of 1.18 and a Papp A→B at 2 h, 100 µM ([3]; pH 7.4, MDCK, DL0410 100 μM) of 0.95 ± 0.116 ×10⁻⁶ cm/s. The Papp B→A at 2 h, 100 µM ([3]; pH 7.4, MDCK, DL0410 100 μM) was 0.924 ± 0.005 ×10⁻⁶ cm/s, the efflux ratio at 2 h, 100 µM ([3]; pH 7.4, MDCK, DL0410 100 μM, read-out: ER) was 0.973 and the cytotoxicity [6] was “no significant cytotoxic effect”. The “concentration at which the activity of ATPase was saturated” value [5] was 150 µM, the efflux ratio at 2 h, 10 µM [7] was 14.9 and the Papp A→B at 2 h, 10 µM ([8]; MDCK-MDR1, DL0410 10 μM) was 0.297 ± 0.111 ×10⁻⁶ cm/s. It also gave a Papp B→A at 2 h, 10 µM ([8]; MDCK-MDR1, DL0410 10 μM) of 4.43 ± 0.376 ×10⁻⁶ cm/s, a Papp A→B at 2 h, 30 µM ([8]; MDCK-MDR1, DL0410 30 μM) of 0.31 ± 0.021 ×10⁻⁶ cm/s and a Papp B→A at 2 h, 30 µM ([8]; MDCK-MDR1, DL0410 30 μM) of 3.21 ± 0.061 ×10⁻⁶ cm/s. The efflux ratio at 2 h, 30 µM ([8]; MDCK-MDR1, DL0410 30 μM, read-out: ER) was 10.3, the Papp A→B at 2 h, 100 µM ([8]; MDCK-MDR1, DL0410 100 μM) was 0.321 ± 0.039 ×10⁻⁶ cm/s and the Papp B→A at 2 h, 100 µM ([8]; MDCK-MDR1, DL0410 100 μM) was 1.73 ± 0.105 ×10⁻⁶ cm/s. It also gave an efflux ratio at 2 h, 100 µM ([8]; MDCK-MDR1, DL0410 100 μM, read-out: ER) of 5.41, an NER ([9]; DL0410 10 μM) of 10.588 and an NER ([9]; DL0410 30 μM) of 8.770. For the same compound, the NER ([9]; DL0410 30 μM + verapamil (50 μM)) was 0.311, the NER ([9]; DL0410 100 μM) was 5.556 and the cytotoxicity [10] was “no significant cytotoxic effect”. For the same compound, the “effect on Rho123 transport from BL to AP” value [11] was “reduced Rho123 efflux” and the cytotoxicity [12] was “no significant cytotoxic effect”.
